Test results taken from article PMC12249915, “Development of a Cyclodextrin-Based Drug Delivery System to Improve the Physicochemical Properties of Ceftobiprole as a Model Antibiotic” (International Journal of Molecular Sciences, 2025).
Converted amounts (≈) assume the structure as drawn. “And” between values parts separate entries of the source, which are not always exact repeats. Equal entries are not always repeated. Where two headings read alike, the source gives them in different places. One block for each compound: values may come before it.

Assays:
[1] = Solubility of ceftobiprole determined by HPLC; format: physicochemical
Method: The samples were stored in a freezer, taking into account the recommended storage conditions for ceftobiprole. The stability of the prepared samples was tested at defined intervals using the same methodology. To evaluate potential changes in solubility due to physical transformations such as phase transitions or recrystallization, an identical volume of water was added as in the initial solubility test. Subsequently, the reconstituted samples were analysed by HPLC to determine the precise solubility and to monitor any increase in the concentration of DPs content, thereby assessing both physical and chemical stability.
The LC-MS/MS experiments were performed using the same equipment and methodology as described in [14], with one modification: to acquire a full mass spectrum of SBE-β-CD, the range of detected m/z was broadened to 2500.

[2] = pH of solutions before freeze-drying and after reconstitution; format: physicochemical
[3] = set-up: method as in PMID 38068968; settings: theoretical calculations, depending on the software used; cited from earlier work
[4] = DOSY NMR study of complex formation with SBE-β-CD; format: physicochemical; settings: for diffusion coefficient D: DOSY, D2O, 25 °C, ceftobiprole/maleic acid 1:25 without SBE-β-CD at 7.5 mM ceftobiprole
Excerpt: Another approach to investigate the complex formation using NMR is the use of Diffusion-Ordered SpectroscopY (DOSY). Based on chemical shifts, each individual signal can be assigned to a proper species present in the analysed sample solution, thus allowing us to determine its diffusion coefficient D . The value of D depends on the hydrodynamic radius r of the analysed species, temperature T , and on the dynamic viscosity η of the solution:(1) D=kBT/6π η r
Here, kB stands for the Boltzmann constant. The solutions used for the DOSY measurements should be appropriately diluted to avoid the viscosity-related issues. Moreover, to properly compare the DOSY spectra between the samples with and without SBE-β-CD, it must be checked whether the viscosities of these two samples are similar.
It is a generally accepted practice to approximate that D is the same for the CD in a complex and for free CD. Assuming a quick exchange regime, to calculate the molar fraction MFCB of ceftobiprole molecules being complexed in relation to all ceftobiprole molecules in the studied solution, one can take advantage of the equation stating that DCB−CD is the weighted average of DCB and DCD :(2) DCB−CD=MFCBDCB+(1−MFCB)DCD
The complexation equilibrium is dynamic, and can be interpreted as a statistical ceftobiprole molecule spending MFCB proportion of time in a complex, and (1−MFCB) fraction of time alone, resulting in overall DCB−CD being the weighted average.
In these studies, 16 increments consisting of 64 scans were performed. A relaxation time of 2 s, a diffusion time of 200 ms, a total diffusion encoding gradient duration of 2 ms, and 16 values of the diffusion encoding gradient incremented from 3 to 25 G/cm were applied. Processing was carried out using the OpenVnmrJ 3.1A software with the option of correction for spatially non-uniform pulsed field gradients.

[5] = cited from earlier work

solubility ([1]; 0.1 M aqueous formic acid (HCOOH), solubility of ceftobiprole before use of 0.1 M formic acid and SBE-β-CD): ~100 µg/mL (≈ 187 µM) | fold higher solubility after freeze-drying in 0.1 M HCOOH ([1]; freeze-dried (2.1 mg/mL) vs unprocessed in 0.1 M HCOOH ([…])): 15 fold | solubility ([1]; water, freeze-dried analogue without SBE-β-CD, reconstituted in water, read-out: Solubility of Ceftobiprole for Freeze-Dried Samples in a Preliminary Study Without SBE-β-CD): 2100 µg/mL (≈ 3930 µM) | solubility ([1]; water, freeze-dried from water without acid, read-out: solubility after freeze-drying of pure aqueous solutions): 120 µg/mL (≈ 224 µM) | solubility ([1]; water, without freeze-drying in acidic environment, read-out: water solubility of ceftobiprole): 50 µg/mL (≈ 93.5 µM) | pH of the dissolved sample ([2]; freeze-dried in 0.1 M HCOOH without SBE-β-CD): approximately 5 | diffusion coefficient D [4]: ≈ 3.16 × 10^−10 m^2/s | molar fraction MFCB of ceftobiprole molecules being complexed ([4]; cCB = 1.917 mM, cCD = 7.667 mM): ≈ 0.35 | molar fraction MFCB ([4]; calculated for cCB = 22.5 mM, cCD = 90 mM (1:25:4), K = 77 M^−1): 0.845 | molar fraction MFCB ([4]; calculated for molar ratio 1:25:2, cCD = 45 mM): 0.693 | equilibrium constant K of complex with SBE-β-CD ([4]; semi-quantitative, from DOSY): 77 M⁻¹ | ceftobiprole molecules in the complex with SBE-β-CD ([4]; solution near saturation, 1:25:4): 85%
SMILES: Nc1nc(/C(=N/O)C(=O)N[C@@H]2C(=O)N3C(C(=O)O)=C(/C=C4\CCN([C@@H]5CCNC5)C4=O)CS[C@H]23)ns1 [ceftobiprole]
pKa of the carboxyl group of ceftobiprole [3]: 3.0 and 3.2 | t90 ([5]; 0.01 M NaOH): ≈ 10 min | t90 (time for 10% decrease in initial concentration) ([5]; 0.1 M HCl at room temperature): approximately 22 h | t90 ([5]; 3% H2O2): ≈ 25 min | t90 ([5]; UV irradiation at 366 nm): ≈ 1 h | decrease of degradation rate constant in the presence of 10 mM SBE-β-CD ([5]; acidic degradation in 0.1 M HCl at 25 °C): 2.5 fold | decrease of degradation rate constant in the presence of 10 mM SBE-β-CD ([5]; thermal degradation in water at 45 °C): 2.5 fold

pH of the solution intended for freeze-drying ([2]; 20-fold molar excess of citric acid in relation to ceftobiprole): 2.9 | pH of the solution intended for freeze-drying ([2]; 50-fold molar excess of citric acid in relation to ceftobiprole): 2.7 | pH of the solution intended for freeze-drying ([2]; 100-fold molar excess of citric acid in relation to ceftobiprole): 2.5
SMILES: O=C(O)CC(O)(CC(=O)O)C(=O)O [citric acid]

diffusion coefficient D [4]: 7.11 × 10^−10 m^2/s
SMILES: O=C(O)/C=C\C(=O)O [maleic acid]
